Experimental data: US9963467B2, “Boronic acid derivatives and therapeutic uses thereof” (Rempex Pharmaceuticals, Inc., priority 2014, dated 2018)

Assays:
Format in all cases: cell-based
KP1005 (CTX-M-14) [1] = assay: Tigemonam potentiation (MPC@4), KP1005; conditions: tigemonam alone
KP1009 (CTX-M-15) [2] = assay: Tigemonam potentiation (MPC@4), KP1009; conditions: tigemonam alone
ec308 (SHV-5) [3] = assay: Tigemonam potentiation (MPC@4), ec308; conditions: tigemonam alone
KP1010 (SHV-12) [4] = assay: Tigemonam potentiation (MPC@4), KP1010; conditions: tigemonam alone
ec302 (TEM-10) [5] = assay: Tigemonam potentiation (MPC@4), ec302; conditions: tigemonam alone
ECL1002 [6] = assay: Tigemonam potentiation (MPC@4), ECL1002; conditions: tigemonam alone
EC1010 (CMY-6) [7] = assay: Tigemonam potentiation (MPC@4), EC1010; conditions: tigemonam alone
[8] = system: strains overexpressing class A (ESBL) and class C beta-lactamases; assay: Tigemonam MIC of test strains; conditions: across the test strains
KP1005 (CTX-M-14) [9] = assay: Aztreonam potentiation (MPC@4), KP1005; conditions: read-out: Aztreonam MIC KP1005
KP1009 (CTX-M-15) [10] = assay: organism not typed; conditions: read-out: Aztreonam MIC KP1009
ec308 (SHV-5) [11] = assay: Aztreonam potentiation (MPC@4), ec308; conditions: read-out: Aztreonam MIC ec308
KP1010 (SHV-12) [12] = assay: Aztreonam potentiation (MPC@4), KP1010; conditions: read-out: Aztreonam MIC KP1010
ec302 (TEM-10) [13] = assay: Aztreonam potentiation (MPC@4), ec302; conditions: read-out: Aztreonam MIC ec302
KP1004 (KPC-2) = assay: Aztreonam potentiation (MPC@4), KP1004; conditions: read-out: Aztreonam MIC KP1004
ECL1002 [14] = assay: Aztreonam potentiation (MPC@4), ECL1002; conditions: read-out: Aztreonam MIC ECL1002
EC1010 (CMY-6) [15] = assay: organism not typed; conditions: read-out: Aztreonam MIC EC1010
[16] = system: strains of various bacteria that are resistant to aztreonam due to expression of various β-lactamases; assay: Aztreonam MIC of test strains; conditions: read-out: Aztreonam MICs of test strains; across the test strains

| SMILES | Tigemonam MIC KP1005 (KP1005 (CTX-M-14) [1]) | Tigemonam MIC KP1009 (KP1009 (CTX-M-15) [2]) | Tigemonam MIC ec308 (ec308 (SHV-5) [3]) | Tigemonam MIC KP1010 (KP1010 (SHV-12) [4]) | Tigemonam MIC ec302 (ec302 (TEM-10) [5]) | Tigemonam MIC ECL1002 (ECL1002 [6]) | Tigemonam MIC EC1010 (EC1010 (CMY-6) [7]) | Tigemonam MICs of test strains [8] [µg/mL] | MIC (KP1005 (CTX-M-14) [9]) [µg/mL] | MIC (KP1009 (CTX-M-15) [10]) [µg/mL] | MIC (ec308 (SHV-5) [11]) [µg/mL] | MIC (KP1010 (SHV-12) [12]) [µg/mL] | MIC (ec302 (TEM-10) [13]) [µg/mL] | MIC (KP1004 (KPC-2)) [µg/mL] | MIC (ECL1002 [14]) [µg/mL] | MIC (EC1010 (CMY-6) [15]) [µg/mL] | MIC [16] [µg/mL] |
| --- | --- | --- | --- | --- | --- | --- | --- | --- | --- | --- | --- | --- | --- | --- | --- | --- | --- |
| CC1(C)[C@H](NC(=O)/C(=N\OCC(=O)O)c2csc(N)n2)C(=O)N1OS(=O)(=O)O [Tigemonam, reference compound] | Z (MIC of greater than 10 μg/mL) | Z (MIC of greater than 10 μg/mL) | Z (MIC of greater than 10 μg/mL) | Z (MIC of greater than 10 μg/mL) | Z (MIC of greater than 10 μg/mL) | Z (MIC of greater than 10 μg/mL) | Z (MIC of greater than 10 μg/mL) | ≥ 16 |  |  |  |  |  |  |  |  |  |
| C[C@H]1[C@H](NC(=O)/C(=N\OC(C)(C)C(=O)O)c2csc(N)n2)C(=O)N1S(=O)(=O)O [Aztreonam, reference compound] |  |  |  |  |  |  |  |  | > 10 | > 10 | > 10 | > 10 | > 10 | > 10 | > 10 | > 10 | ≥ 64 |
